{"source": "patent US4937232A", "about": "“Inhibition of protein kinase C by long-chain bases” (priority 1988, dated 1990)", "key": {"[1]": {"tested_on": "human neutrophils", "experiment": "Oxygen consumption (oxidative burst) of human neutrophils", "format": "cell-based", "conditions": "for IC50: read-out: Concentration required for 50% inhibition; for RATE of oxygen consumption, NO SPHINGANINE: activator alone", "text": "Human neutrophils were obtained by continuous flow leukapheresis from normal adults. Residual erythrocytes were removed by hypotonic lysis with a resulting purity of >95% neutrophils. Alternatively peripheral blood was obtained by phlebotomy and neutrophils were isolated by HESPAN (6% Hetastarch, 0.9% NaCl) sedimentaion of erythrocytes, centrifugation through lymphocyte separation medium (9.4% sodium diatrizoate, 6.2% Ficoll), and hypotonic lysis of residual erythrocytes. Isolated cells were resuspended in phosphate buffered saline (PBS)-glucose, containing 0.6 mM CaCl2, 2.6 mM KCl, 1.5 mM KH2 PO4, 0.5 mM MgCl2, 136 mM NaCl, 8 mM Na2 HPO4, 5.5 mM glucose.\nOxygen consumption was measured using a Clark-type electrode with YSI model 53 oxygen monitor. Assays were conducted at 37° C. with 6.5×10^6 cells per ml with a total volume of either 2.5 ml or 4 ml. Effectors were injected into the electrode chamber using a Hamilton syringe. Initial slopes after the addition of the stimuli were used for rate calculations. For activators with a lag prior to the onset of the oxidative burst, maximal rates following the lag were used."}, "[2]": {"tested_on": "protein kinase C", "experiment": "Triton X-100 mixed micellar assay for protein kinase C activity", "format": "biochemical, rat", "conditions": "mixed micellar assay", "method": "Protein kinase C was partially purified from rat brain as described by Hanrun et al (J. Biol. Chem., 260, 10043, 1985), which is hereby incorporated by reference.\nProtein kinase C was assayed with Triton X-100 mixed micelles as described by Hanrun et al, (ibid.), Sphingosine was dried down with the lipid cofactors."}, "[3]": {"tested_on": "HL-60 cells", "experiment": "PMA-induced adherence (attachment) of HL-60 cells", "format": "cell-based, human", "conditions": "for inhibition of PMA-induced attachment: 8 nM PMA", "method": "Cells were centrifuged at 600 g for 3 min, and added at 1×10^5 cells per well in 12-well culture dishes. Medium, PMA, and long-chain bases (prepared as the 1:1 molar complex with fatty acid-free bovine serum albumin) at the indicated concentrations were added for a total volume of 2.0 ml. After the desired times, the cells in suspension were counted and checked for viability (trypan blue exclusion) with a hemacytometer. The attached cells were quantitated by measuring DNA content according to the method of West et al (Anal. Biochem., 147, 289-295, 1985) and by assaying for acid phosphatase according to the method of Schnyder (J. Exp. Med., 148, 434-445, 1978)."}, "[4]": {"target": "protein kinase C", "experiment": "Mixed micellar protein kinase C activity assay for lysosphingolipids (Table VI)", "format": "biochemical", "conditions": "for Inhibition of Protein Kinase C, concentration giving 50% inhibition, (mol %): 0.3% Triton X-100, 1 mol % = 43 μM; for IC50: 0.3% Triton X-100 mixed micelles, 2 mol % dioleoylglycerol, read-out: Inhibition of Protein Kinase C, concentration giving 50% inhibition; for IC50 / inhibition of protein kinase C activity: 6 mol % phosphatidylserine; for inhibition of protein kinase C activity: 2 mol % sn-1,2-dioleoylglycerol, 100 μM Ca2+", "method": "(§1) TABLE VI: Inhibition of protein kinase C activity and phorbol-dibutyrate binding by lysosphingolipids. […] The remaining two columns show the observed effects of the lysosphingolipids of protein kinase C activity and phorbol diester binding in vitro and in human platelets. Lysogangliosides were prepared from their parental gangliosides by hydrolysis in methanolic KOH esentially as described by Neuenhofer et al. in Bioch. 24, 525, 1985. During this preparation, with approximately 90-95% conversion, the N-acetate of N-acetylneuraminic acid is partially hydrolyzed. Fatty acids were partitioned into heptane after acidification of the methanolic reaction mixture. Galactosylsphingosine, glucosylsphingosine, and lactosylsphingosine were prepared as previously described for galactosylsphingosine (Radin, Lipids 9, 358, 1974) Sphingosylphosphorylcholine was prepared by hydrolysis in HCl-butanol (Kaller, Biochemische Zeitschrift 334, 451, 1961). The purity of the lyso derivatives (greater than 90%) was checked by thin layer chromatography (TLC) on silica gel H plates developed in chloroform/methanol/2N NH4 OH (65/35/9) and visualized by ninhydrin reaction for N-lyso compounds, by α-naphthol/sulfuric acid for both gangliosides and lysogangliosides,and by a phospholipid spray for sphingosylphosphorylcholine. Lysosphingolipids were quantitated by reaction of the amine group with trinitrobenzenesulfonate. Gangliosides and lysosphingolipids were also quantitated by reaction with anthrone. The lysosphingolipids were then studied for their effect on protein kinase C activity. Protein kinase C was purified to near homogeneity by the method of Wolf et al. (J. Biol. Chem. 260, 15718, 1985), and activity was measured using a mixed micellar assay (described herein). Lysosphingolipids were added directly in aqueous solution, and allowed to equilibrate with the Triton X-100 (0.3% w/v) mixed micelles containing 6 mol % phosphatidylserine and 2 mol % dioleoylglycerol. […] Phorbol-dibutyrate binding was measured in a mixed micellar assay. Lysosphingolipids inhibited phorbol-dibutyrate binding to protein kinase C in the presence of Triton X-100 mixed micelles containing 20 mol % phosphatidylserine. […] The difference is related to the higher concentration of phosphatidylserine used in the binding assay, as both activity and binding show a high cooperative dependence on phosphatidylserine, which modulates the inhibition by lysosphingolipids. Phorbol-dibutyrate binding to human platelets and 40 kDa phosphorylation in platelets were carried out as described above. Lysosphingolipids inhibited phorbol dibutyrate binding to human platelets at concentrations in the 10-50 μM range. Inhibition of 40 kDa phosphorylation occurred over the same concentration range."}, "[5]": {"tested_on": "protein kinase C-induced phosphorylation of the 40 KDa polypeptide", "experiment": "40K (40 kDa) protein phosphorylation in human platelets", "format": "cell-based", "conditions": "concentrations less than 100 μM", "method": "They were then suspended in modified Tyrode's buffer to a concentration of 2.5×10^8 platelets/ml.\n^32 Pi at 0.2 mCi/ml was added to the platelet suspension and labelling was allowed to proceed for 75 minutes at 37° C., after which the platelets were pelleted at 600×g for 10 minutes and resuspended in Tyrode's buffer to the same concentration. They were then aliquoted in Eppendorf microfuge tubes and preincubated at 37° C. for 5 minutes with the varying concentrations of sphingosine. Platelets were then stimulated with either 5 μM dioctanoylglycerol (added as an ethanol solution with the final concentration of ethanol 0.5%), 10 μM TPA, or 1 unit/ml thrombin. The reactions were stopped after 30 seconds by the addition of an equal volume of 2× sample buffer, and the samples were then boiled for 3 minutes. […] Gels were subsequently fixed in water/methanol/acetic acid (60:30:10), dried, and autoradiographed."}, "[6]": {"target": "protein kinase C", "experiment": "Phorbol-dibutyrate binding to protein kinase C, mixed micellar assay (Table VI)", "conditions": "Triton X-100 mixed micelles, 20 mol % phosphatidylserine", "method": "as §1"}, "[7]": {"conditions": "oxidative burst, PMA activation"}, "[8]": {"conditions": "Homo sapiens, Neutrophil, oxidative burst, PMA activation"}}, "note": "“Also recorded” adds a separate entry of the source. Where two headings read alike, the source gives them in different places.", "data": [{"compound": "3-amino-3-hydroxy-3-phenyl-propanol [reference compound]", "values": [{"measurement": "IC50", "setting": "[1]; [7]", "value": "> 100", "unit": "µM"}]}, {"compound": "CCCCCCCCCCCCCCC[C@H](O)[C@@H](N)CO", "note": "(relative stereo) [threo-Sphinganine]", "values": [{"measurement": "inhibition of protein kinase C (specificity)", "setting": "[2]", "value": "inhibitors"}, {"measurement": "IC50", "setting": "[1]; [8]", "value": 24, "unit": "µM"}, {"measurement": "times less effective than erythro-sphinganine", "setting": "[1]; [7]", "value": "3-4 times"}]}, {"compound": "NC(CO)C(O)c1ccccc1", "note": "(stereo not shown) [1,3-dihydroxy-2-amino-3-phenylpropane]", "values": [{"measurement": "inhibition of PMA-induced attachment", "setting": "[3]", "value": "did not inhibit"}, {"measurement": "inhibition of protein kinase C (specificity)", "setting": "[2]", "value": "not to be inhibitors"}, {"measurement": "inhibition of protein kinase C (specificity)", "setting": "[2]; listed as 1,3-dihydroxy-2-amino-3 phenylpropane", "value": "without effect"}]}, {"compound": "CCCCCCCCCCCCCCCC(=O)C(N)CO", "note": "(stereo not shown) [3-ketosphinganine]", "values": [{"measurement": "inhibition of protein kinase C (specificity)", "setting": "[2]", "value": "inhibitors"}]}, {"compound": "CCCCC/C=C\\C/C=C\\C/C=C\\C/C=C\\CCCC(=O)O", "note": "[Arachidonate, reference compound]", "values": [{"measurement": "RATE of oxygen consumption, NO SPHINGANINE", "setting": "[1]", "value": "4.2 nmols O2 consumed/min/10^6 cells"}]}, {"compound": "CCCCCCCCCCCCCCCC[N+](C)(C)C.[Br-]", "note": "[CTAB, cetyl trimethylammonium bromide]", "values": [{"measurement": "inhibition of protein kinase C (specificity)", "setting": "[2]; listed as cetyl triethylammonium bromide", "value": "inactive; also recorded: not to be inhibitors"}, {"measurement": "IC50", "setting": "[1]; [8]", "value": "> 100", "unit": "µM"}]}, {"compound": "CCCCCCCC(=O)OCC(CO)OC(=O)CCCCCCC", "note": "(stereo not shown) [Dioctanoyl Glycerol, 1,2-dioctanoylglycerol, reference compound]", "values": [{"measurement": "RATE of oxygen consumption, NO SPHINGANINE", "setting": "[1]", "value": "6.1 nmols O2 consumed/min/10^6 cells"}]}, {"compound": "CCCCCCCCCCCCCCC[C@@H](O)[C@H](CO)NC(C)=O", "note": "[N-acetylsphinganine, reference compound]", "values": [{"measurement": "inhibition of PMA-induced attachment", "setting": "[3]; at up to 500 μM", "value": "not inhibitory"}, {"measurement": "IC50", "setting": "[1]; [8]", "value": "> 100", "unit": "µM"}]}, {"compound": "CCCCCCCCCCCCC/C=C/[C@@H](O)[C@H](CO)NC(C)=O", "note": "[N-acetylsphingosine]", "values": [{"measurement": "inhibition of protein kinase C (specificity)", "setting": "[2]", "value": "without effect; also recorded: not to be inhibitors"}]}, {"compound": "CCCCCCCCCCCCCCCC(=O)NC(CO)C(O)CCCCCCCCCCCCCCC", "note": "(stereo not shown) [N-palmitoyldihydrosphingosine, reference compound]", "values": [{"measurement": "inhibition of PMA-induced attachment", "setting": "[3]", "value": "not inhibitory"}]}, {"compound": "CCCCCCCCN", "note": "[Octylamine, reference compound]", "values": [{"measurement": "inhibition of PMA-induced attachment", "setting": "[3]", "value": "did not inhibit"}, {"measurement": "inhibition of protein kinase C (specificity)", "setting": "[2]", "value": "did not inhibit"}, {"measurement": "IC50", "setting": "[1]; [8]", "value": 300, "unit": "µM"}]}, {"compound": "CCCCCCCCCCCCCCCCCCN", "note": "[Stearylamine, reference compound]", "values": [{"measurement": "IC50", "setting": "[3]; Homo sapiens, HL-60, read-out: 50% inhibition of PMA-induced attachment", "value": 10, "unit": "µM"}, {"measurement": "inhibition of protein kinase C (specificity)", "setting": "[2]", "value": "nearly as effective as sphingosine"}, {"measurement": "IC50", "setting": "[1]; [8]", "value": 25, "unit": "µM"}]}, {"compound": "O[C@H]1[C@H]2[C@H](O)CCCN2C[C@H]1O", "note": "[Swainsonine]", "values": [{"measurement": "inhibition of protein kinase C (specificity)", "setting": "[2]", "value": "not an inhibitor"}]}, {"compound": "CCCCCCCCCCCCC/C=C/[C@@H](O)[C@@H](N)CO[C@@H]1O[C@H](CO)[C@@H](O[C@@H]2O[C@H](CO)[C@H](O[C@H]3O[C@H](CO)[C@H](O)[C@H](O)[C@H]3O)[C@H](O)[C@H]2O)[C@H](O)[C@H]1O", "note": "[globotriosylsphingosine]", "values": [{"measurement": "Inhibition of Protein Kinase C, concentration giving 50% inhibition, (mol %)", "setting": "[4]", "value": 4.2, "unit": "mol %"}, {"measurement": "IC50", "setting": "[4]", "value": 180, "unit": "µM"}]}, {"compound": "CCCCCCCCCCCCC/C=C/[C@@H](O)[C@H](CO[C@@H]1O[C@H](CO)[C@H](O)[C@H](O)[C@H]1O)NC(C)=O", "note": "[reference compound]", "values": [{"measurement": "effect on 40 kDa phosphorylation in platelets", "setting": "[5]", "value": "did not affect"}, {"measurement": "inhibition of protein kinase C activity", "setting": "[4]", "value": "None of these N-acetyl derivatives inhibited"}]}, {"compound": "CCCCCCCCCCCCC/C=C/[C@@H](O)[C@H](COP(=O)([O-])OCC[N+](C)(C)C)NC(C)=O", "note": "[reference compound]", "values": [{"measurement": "effect on 40 kDa phosphorylation in platelets", "setting": "[5]", "value": "did not affect"}, {"measurement": "inhibition of protein kinase C activity", "setting": "[4]", "value": "None of these N-acetyl derivatives inhibited"}]}, {"compound": "CCCCCCCCCCCCC/C=C/[C@@H](O)[C@@H](N)COP(=O)([O-])OCC[N+](C)(C)C", "note": "[sphingosylphosphorylcholine]", "values": [{"measurement": "Inhibition of Protein Kinase C, concentration giving 50% inhibition, (mol %)", "setting": "[4]", "value": 2.8, "unit": "mol %"}, {"measurement": "IC50", "setting": "[4]", "value": 120, "unit": "µM"}, {"measurement": "Inhibition of [3H]PDBu Binding to Protein Kinase, (mol %)", "setting": "[6]", "value": 11.6, "unit": "mol %"}, {"measurement": "IC50", "setting": "[6]; read-out: Inhibition of [3H]PDBu Binding to Protein Kinase", "value": 500, "unit": "µM"}]}, {"compound": "sphingomyelin [reference compound]", "values": [{"measurement": "inhibition of protein kinase C activity", "setting": "[4]", "value": "None of the parent compounds inhibited"}]}]}
